Among the data in ChEMBL document CHEMBL2203044, “Discovery of di-indolinone as a novel scaffold for protein tyrosine phosphatase 1B inhibitors” (Bioorg Med Chem Lett, 2012) are IC50 and inhibition values, retold here.

For experiment [1], the target named is T1, Tyrosine-protein phosphatase non-receptor type 1 (Homo sapiens, UniProt P18031).
T1 sequence (P18031 whole entry): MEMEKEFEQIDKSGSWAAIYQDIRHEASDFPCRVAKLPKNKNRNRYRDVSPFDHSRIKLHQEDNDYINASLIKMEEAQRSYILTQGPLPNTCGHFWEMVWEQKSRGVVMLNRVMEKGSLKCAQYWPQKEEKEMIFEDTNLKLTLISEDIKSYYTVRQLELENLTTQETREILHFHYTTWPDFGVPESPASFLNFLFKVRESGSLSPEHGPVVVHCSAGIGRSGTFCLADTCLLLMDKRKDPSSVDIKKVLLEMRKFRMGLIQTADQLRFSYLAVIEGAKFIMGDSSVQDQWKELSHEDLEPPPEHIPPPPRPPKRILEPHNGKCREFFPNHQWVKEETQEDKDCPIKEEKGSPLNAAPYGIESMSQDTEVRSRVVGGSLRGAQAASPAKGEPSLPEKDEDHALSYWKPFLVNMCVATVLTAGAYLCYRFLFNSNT
Description: Inhibition of recombinant PTP1B using para-nitrophenylphosphate as substrate by high throughput screening assay.

Experiment [2] has as its target T2, Tyrosine-protein phosphatase non-receptor type 1 (Homo sapiens) (UniProt P18031).
T2 sequence (whole entry): T1 sequence (P18031 whole entry)
The experiment is described as follows: Inhibition of recombinant PTP1B using para-nitrophenylphosphate as substrate at 20 ug/mL by high throughput screening assay.

The target of experiment [3] is T3, Tyrosine-protein phosphatase non-receptor type 2 (Homo sapiens, UniProt P17706).
T3 sequence (P17706 whole entry): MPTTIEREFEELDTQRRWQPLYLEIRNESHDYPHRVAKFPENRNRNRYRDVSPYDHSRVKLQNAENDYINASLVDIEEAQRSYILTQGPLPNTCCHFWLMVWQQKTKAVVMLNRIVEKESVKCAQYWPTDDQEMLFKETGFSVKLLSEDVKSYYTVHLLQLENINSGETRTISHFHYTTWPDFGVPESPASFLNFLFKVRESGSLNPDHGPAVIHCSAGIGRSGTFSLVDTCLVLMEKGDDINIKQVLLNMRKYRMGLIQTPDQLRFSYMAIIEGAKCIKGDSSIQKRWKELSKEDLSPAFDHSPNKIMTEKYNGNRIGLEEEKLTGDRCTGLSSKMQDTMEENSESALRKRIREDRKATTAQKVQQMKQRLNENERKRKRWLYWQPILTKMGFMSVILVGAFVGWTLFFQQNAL
The experiment is described as follows: Inhibition of TCPTP.

For experiment [4], the target named is Receptor-type tyrosine-protein phosphatase F (Homo sapiens, UniProt P10586). The experiment is described as follows: Inhibition of LAR.
Sequence of Receptor-type tyrosine-protein phosphatase F (P10586 whole entry): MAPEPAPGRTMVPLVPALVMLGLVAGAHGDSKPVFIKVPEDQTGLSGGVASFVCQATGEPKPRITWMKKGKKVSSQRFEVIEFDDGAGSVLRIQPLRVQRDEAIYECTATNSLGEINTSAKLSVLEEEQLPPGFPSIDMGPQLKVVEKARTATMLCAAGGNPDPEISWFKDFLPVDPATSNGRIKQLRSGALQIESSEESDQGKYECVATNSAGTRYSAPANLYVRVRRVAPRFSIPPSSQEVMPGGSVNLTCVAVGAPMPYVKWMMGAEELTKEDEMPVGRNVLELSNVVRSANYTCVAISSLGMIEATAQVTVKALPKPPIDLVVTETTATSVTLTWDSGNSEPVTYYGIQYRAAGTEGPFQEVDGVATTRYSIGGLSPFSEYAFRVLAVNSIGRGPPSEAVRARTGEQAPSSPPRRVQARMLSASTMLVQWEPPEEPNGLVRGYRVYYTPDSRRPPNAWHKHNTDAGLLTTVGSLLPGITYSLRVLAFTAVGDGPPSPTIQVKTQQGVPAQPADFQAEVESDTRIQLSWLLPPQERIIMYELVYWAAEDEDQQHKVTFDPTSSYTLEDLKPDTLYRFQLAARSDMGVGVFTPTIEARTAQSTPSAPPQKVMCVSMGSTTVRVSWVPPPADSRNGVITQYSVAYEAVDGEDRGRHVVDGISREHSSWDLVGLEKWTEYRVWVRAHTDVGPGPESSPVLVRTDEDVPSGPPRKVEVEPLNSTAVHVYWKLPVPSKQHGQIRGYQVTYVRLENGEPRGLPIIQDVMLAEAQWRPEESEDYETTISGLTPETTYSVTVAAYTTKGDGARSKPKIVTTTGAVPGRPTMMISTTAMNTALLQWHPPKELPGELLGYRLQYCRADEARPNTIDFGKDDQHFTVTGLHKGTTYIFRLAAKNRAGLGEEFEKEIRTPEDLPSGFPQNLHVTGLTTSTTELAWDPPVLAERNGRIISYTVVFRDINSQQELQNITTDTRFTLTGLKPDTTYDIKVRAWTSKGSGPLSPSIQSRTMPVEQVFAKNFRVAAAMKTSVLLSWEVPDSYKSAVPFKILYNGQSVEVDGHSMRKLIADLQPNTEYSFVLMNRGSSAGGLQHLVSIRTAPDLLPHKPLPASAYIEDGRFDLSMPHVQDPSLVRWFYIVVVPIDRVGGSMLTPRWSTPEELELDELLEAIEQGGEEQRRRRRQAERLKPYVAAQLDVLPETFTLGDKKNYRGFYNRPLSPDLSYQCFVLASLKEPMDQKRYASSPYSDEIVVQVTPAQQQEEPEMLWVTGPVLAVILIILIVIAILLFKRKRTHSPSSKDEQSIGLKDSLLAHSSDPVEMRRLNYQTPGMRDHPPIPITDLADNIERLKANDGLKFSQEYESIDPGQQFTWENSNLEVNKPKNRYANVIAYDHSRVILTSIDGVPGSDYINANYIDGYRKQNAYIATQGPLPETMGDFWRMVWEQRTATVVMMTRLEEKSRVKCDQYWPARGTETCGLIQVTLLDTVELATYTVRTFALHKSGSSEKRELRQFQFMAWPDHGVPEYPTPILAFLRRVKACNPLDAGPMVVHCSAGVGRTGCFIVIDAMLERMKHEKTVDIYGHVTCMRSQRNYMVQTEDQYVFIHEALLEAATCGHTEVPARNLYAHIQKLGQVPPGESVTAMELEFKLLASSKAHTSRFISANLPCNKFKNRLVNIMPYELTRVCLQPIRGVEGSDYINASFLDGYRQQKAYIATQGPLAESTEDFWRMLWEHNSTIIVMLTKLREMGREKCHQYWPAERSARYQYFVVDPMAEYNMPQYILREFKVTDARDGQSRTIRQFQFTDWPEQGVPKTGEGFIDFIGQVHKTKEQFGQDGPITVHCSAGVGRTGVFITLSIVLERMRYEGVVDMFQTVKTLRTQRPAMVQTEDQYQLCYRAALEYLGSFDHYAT
For experiment [5], the target named is Tyrosine-protein phosphatase non-receptor type 6 (Homo sapiens, UniProt P29350). Description: Inhibition of SHP-1.
Sequence of Tyrosine-protein phosphatase non-receptor type 6 (P29350 whole entry): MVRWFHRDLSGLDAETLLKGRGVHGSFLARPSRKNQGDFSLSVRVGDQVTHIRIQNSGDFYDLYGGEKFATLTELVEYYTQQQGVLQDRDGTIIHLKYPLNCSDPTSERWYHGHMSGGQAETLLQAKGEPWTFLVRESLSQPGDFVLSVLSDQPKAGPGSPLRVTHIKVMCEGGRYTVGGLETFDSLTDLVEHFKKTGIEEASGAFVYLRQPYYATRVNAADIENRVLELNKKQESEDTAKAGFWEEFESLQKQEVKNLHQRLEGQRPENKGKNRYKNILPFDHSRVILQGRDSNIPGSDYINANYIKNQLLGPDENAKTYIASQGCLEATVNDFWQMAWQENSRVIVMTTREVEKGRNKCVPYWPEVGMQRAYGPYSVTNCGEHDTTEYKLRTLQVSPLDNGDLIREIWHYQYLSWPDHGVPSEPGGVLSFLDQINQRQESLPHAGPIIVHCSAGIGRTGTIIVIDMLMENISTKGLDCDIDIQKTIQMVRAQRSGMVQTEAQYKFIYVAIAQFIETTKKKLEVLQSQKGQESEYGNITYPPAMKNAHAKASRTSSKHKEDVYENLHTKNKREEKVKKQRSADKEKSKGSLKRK

One may read the IC50 as the concentration needed to halve the response being measured. As for `Cc1ccc2c(c1)C(=O)C(=O)N2Cc1ccc(/C=C2/C(=O)Nc3ccc(Cl)cc32)o1`, the half-maximal inhibitory concentration (IC50) in experiment [1] stood at 3.46 µM. The inhibition is the change of the read-out against control, counted positive when it falls. As for `COC(=O)[C@@H]1CCCCN1Cc1ccc(/C=C2/C(=O)N(Cc3ccc(/C=C4/C(=O)Nc5ccccc54)o3)c3ccc(F)cc32)o1`, the inhibition in experiment [2] stood at 75%. For `O=C1Nc2ccccc2/C1=C\c1ccc(CN2C(=O)C(=O)c3ccccc32)o1`, in experiment [1], the IC50 came to 7.63 µM.

For the compound `O=C1Nc2ccc(Br)cc2/C1=C\c1ccc(CN2C(=O)C(=O)c3ccccc32)o1`, the IC50 in experiment [3] is 11.5 µM; in experiment [4] it was above 100 µM; in experiment [1], 2.8 µM; in experiment [5], above 100 µM. In the case of `O=C1Nc2ccc(Cl)cc2/C1=C\c1ccc(CN2C(=O)C(=O)c3ccccc32)o1`, the concentration for half-maximal inhibition (IC50) in experiment [1] worked out at 4.41 µM.

As to `COC(=O)[C@@H]1CCCCN1Cc1ccc(/C=C2/C(=O)Nc3ccc(F)cc32)o1`, in experiment [2], the inhibition came out at 14%. Take `Cc1ccc2c(c1)/C(=C\c1ccc(CN3C(=O)C(=O)c4cc(Cl)ccc43)o1)C(=O)N2`: the IC50 in experiment [1] came to 3.37 µM. Take `Cc1ccc2c(c1)/C(=C\c1ccc(CN3C(=O)C(=O)c4ccccc43)o1)C(=O)N2`: the IC50 in experiment [1] came out at 9.82 µM.

With `O=C1Nc2ccc([N+](=O)[O-])cc2/C1=C\c1ccc(CN2C(=O)C(=O)c3ccccc32)o1`, the concentration for half-maximal inhibition (IC50) in experiment [1] was found to be 5.35 µM.

`Cc1ccc2c(c1)C(=O)C(=O)N2Cc1ccc(C=O)o1`: in experiment [1], the IC50 is above 60 µM. On to `COC(=O)[C@@H]1CCCCN1Cc1ccc(/C=C2/C(=O)N(Cc3ccc(C=O)o3)c3ccc(F)cc32)o1`, for which the inhibition in experiment [2] amounted to 55%. As for `O=Cc1ccc(CN2C(=O)C(=O)c3ccccc32)o1`, in experiment [1], the IC50 was above 60 µM. Same read-out and setting: under `Cc1ccc2c(c1)C(=O)C(=O)N2Cc1ccc(/C=C2/C(=O)Nc3ccc(Br)cc32)o1` stands 5.23 µM; under `O=C1Nc2ccccc2/C1=C\c1ccc(CN2C(=O)C(=O)c3cc(Cl)ccc32)o1`, 4.59 µM; under `Cc1ccc2c(c1)C(=O)C(=O)N2Cc1ccc(/C=C2/C(=O)Nc3ccccc32)o1`, 6.71 µM. For `O=C1Nc2ccc(Cl)cc2/C1=C\c1ccc(CN2C(=O)C(=O)c3cc(Cl)ccc32)o1`, the half-inhibitory concentration (IC50) in experiment [3] is 18.8 µM; in experiment [4] it was above 100 µM; in experiment [1], 2.3 µM; in experiment [5], above 100 µM. With `O=Cc1ccc(CN2C(=O)C(=O)c3cc(Cl)ccc32)o1`, in experiment [1], the IC50 is above 60 µM.

Regarding `Cc1ccc2c(c1)C(=O)C(=O)N2Cc1ccc(/C=C2/C(=O)Nc3ccc(C)cc32)o1`, the half-inhibitory concentration (IC50) in experiment [1] was found to be 5.7 µM.
